PMC4772543, “Immune responses to Mycobacterial heat shock protein 70 accompany self-reactivity to human BiP in rheumatoid arthritis” (Scientific Reports, 2016)

Key:
[1] = test system: CD4+ T cells from MycHSP70-immunized HLA-DR4 transgenic mice; assay: Splenic CD4+ T cell proliferation from MycHSP70-immunized HLA-DR4 transgenic mice in response to epitopes; assay type: cell-based, mouse; conditions: antigen 10 μg/mL, 72 h, irradiated splenocytes, 3H-thymidine
Procedure: (§1) Figure 5 Immunization of HLA-DR4 transgenic mice with MycHSP70. (A) HLA-DR4 transgenic mice were immunized with recombinant MycHSP70. Serum anti-MycHSP70 and anti-mouse BiP antibody titers were measured in the 21 days following the first immunization. (B) Splenic CD4+ T cell proliferation from MycHSP70-immunized HLA-DR4 transgenic mice in response to MycHSP70_287–306 and BiP336–355 epitopes. Proliferation was determined by the incorporation of [3]-H thymidine. Data were representative of at least three independent trials. ***p < 0.001.
(§2) HLA-DR4 transgenic mice were obtained from Taconic, immunized twice (day 0, 14) with 100 μg of MycHSP70 with the same volume of complete Freund’s adjuvant subcutaneously into the tails, and sacrificed on day 21. MACS-purified CD4^+ T cells (1 × 10^5/mL) were cultured with irradiated splenocytes (1 × 10^6/mL) and an antigen (10 μg/mL) in RPMI 1640 medium supplemented with 5% FCS, 2 mM L-glutamine, 100 U/ml penicillin, 100 μg/ml streptomycin, and 5 × 10^−5 M 2-mercaptoethanol in a humidified incubator at 37 °C, 5% CO2, for 72 h. ^3H-thymidine was pulsed to each well, cells were harvested after an 18-hour incubation, and analyzed with a scintillation counter.

T cells in RA = conditions: cited from earlier work
From the text: MycHSP70 and BiP share 50% of their amino acid sequences, and MycHSP70_287–306 is located at a position corresponding to that of the BiP-derived HLA-DR4 effector epitope. We previously identified two major BiP-derived HLA-DR4 epitopes in RA. […] MycHSP70_287–306 strongly induces proliferation and is regarded as an effector epitope. MycHSP70_287–306 and BiP336–355 share 50% of the amino acids in their core sequences, which bind HLA-DR pockets. They also share the P4V residue, whi ...

HLA-DR4 transgenic mice = assay: Immunization of HLA-DR4 transgenic mice with MycHSP70, serum antibody titers by ELISA; assay type: in vivo, mouse; conditions: 100 μg MycHSP70 with complete Freund's adjuvant subcutaneously
Procedure: as §1
Serum antibodies were measured by ELISA as previously reported. Briefly, 96-well plates (Thermo Fisher Scientific) were coated with 5 μg/mL of each antigen and dissolved in 0.1 M NaHCO3. […]
as §2

RSTMKPVQKVLEDSDLKKSD [BiP336–355, reference compound]
CD4+ T cell proliferation in response to peptide [1]: significant proliferation
T cell type recognizing the BiP-derived HLA-DR4 epitope (T cells in RA): recognized by effector T cells

MycHSP70: recombinant Mycobacterial heat shock protein 70 (NCBI GenBank AF2122/97)
serum antibody titers to MycHSP70 (HLA-DR4 transgenic mice; day 0 and 14, serum day 21): elevation
serum antibody titers to BiP (HLA-DR4 transgenic mice; day 0 and 14, serum day 21, anti-mouse BiP): elevation
